Experiments:
[1] = test system: GM1, GM2, and GM3 ganglioside levels; assay: TLC analysis of whole brain ganglioside levels; type: in vivo, Dutch APP^E693Q transgenic mice; conditions: 3 months of 100 mg/kg
Experimental: (§1) The generation and characterization of Dutch APPE693Q mice transgenic mice is described in Gandy, S., et al. Days to criterion as an indicator of toxicity associated with human Alzheimer amyloid-beta oligomers. Annals of neurology 68, 220-230 (2010). 3-month-old male Dutch APP^E693Q mice transgenic mice were orally gavaged 5 days/week with either vehicle (water) (n=15) or 3, 10, 30 or 100 mg/kg AdDNJ for 3 months (n=13). All animal studies were approved and conducted in accordance with the Institutional Animal Care and Usage Committee. Mice were kept in a pathogen-free environment, on a 12-hour light/dark cycle and given ad libitum access to food and water. At 6 month of age treatment groups, and a 3-month-old untreated baseline group (n=15), were cognitively assessed in the NOR, EPM and FC tests. 48 hours following the final dose mice were perfused with ice-cold 1×PBS. The brain was removed and dissected into two hemispheres. One half was snap-frozen on dry ice and stored at −80° C. for biochemistry; the other half was post-fixed in 4% paraformaldehyde then sagittally sectioned on a vibratome into 30 μm sections and stored at 4° C. in storage buffer until histological analyses.

[2] = target: T1, β-glucocerebrosidase (GCase) (Homo sapiens, UniProt P04062); assay: Selectivity: glucocerebrosidase activity in fibroblast lysate; type: biochemical; conditions: 10 μM, the highest concentration tested
T1 construct: wild-type fibroblast (CRL2076) pellets (˜2.5e6 cells/pellet) were lysed; host or cells: wild-type fibroblasts CRL2076, lysate
T1 sequence (P04062 40-536): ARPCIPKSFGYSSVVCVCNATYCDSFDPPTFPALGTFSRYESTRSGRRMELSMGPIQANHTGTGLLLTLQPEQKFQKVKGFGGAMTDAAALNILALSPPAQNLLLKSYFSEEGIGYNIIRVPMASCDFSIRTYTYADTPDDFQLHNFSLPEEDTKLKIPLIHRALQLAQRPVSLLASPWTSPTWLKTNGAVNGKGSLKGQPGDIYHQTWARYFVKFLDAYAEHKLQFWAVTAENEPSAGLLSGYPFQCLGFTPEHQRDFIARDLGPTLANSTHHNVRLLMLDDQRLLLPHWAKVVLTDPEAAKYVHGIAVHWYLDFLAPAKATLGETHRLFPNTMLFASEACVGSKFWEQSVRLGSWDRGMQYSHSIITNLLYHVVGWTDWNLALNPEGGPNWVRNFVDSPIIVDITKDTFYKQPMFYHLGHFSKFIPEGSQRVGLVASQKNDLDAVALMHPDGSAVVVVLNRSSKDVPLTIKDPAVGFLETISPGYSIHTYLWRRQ
Text: Enzymatic activity measurements were done in duplicate.

[3] = test system: Dutch APP^E693Q transgenic mice; assay: Elevated plus maze (EPM); type: in vivo; conditions: 3-month course, 3, 10, 30 or 100 mg/kg
Experimental: as §1, with “One half was snap-frozen on dry ice and stored at −80° C. for biochemistry; the other half was post-fixed in 4% paraformaldehyde then sagittally sectioned on a vibratome into 30 μm sections and stored at 4° C. in storage buffer until histological analyses.” left out
The maze in the configuration of a+ and comprised two open arms (35×5×0 cm) across from each other and perpendicular to two closed arms (35×5×16 cm) with a central neutral zone (Stoelting, Wood Dale, Ill.). […] Each trial was videotaped overhead and scored for amount of time spent in the open and closed arms using ANY-maze (Stoelting, Wood Dale, Ill.). […]

With `CC(=O)NC1CNC(CO)[C@@H](O)C1O` (stereo partly drawn) [AdDNJ, 2-acetamido-1,2-dideoxynojirimycin] the “ganglioside levels in whole brain extracts (TLC)” value [1] was “did not reveal any changes in ganglioside levels”, the “inhibition of β-glucocerebrosidase (GCase)” value [2] was “did not inhibit” and the “anxiety in elevated plus maze” value [3] was “reduced anxiety at all doses tested”.
